# Experimental data reported in US20130072517A1 (Avanir Pharmaceuticals, Inc., priority 2002, published 2013).
# What was measured:
# [1] = system: ALS subjects with pseudobulbar affect; experiment: Clinical Study #4: CNS-LS score (primary efficacy); format: in vivo, human; settings: for Difference vs 30DM/30Q, mean difference in the CNS-LS reduction: controlling for baseline CNS-LS and study site
# From the text: This was a multicenter, randomized, double-blind, controlled, parallel-group study. All study drugs were self-administered orally every twelve hours for twenty-eight days. The study included a screening visit and three other clinic visits on Days 1, 15, and 29. Day 29 was the last day the subject was on study and could occur anywhere between the morning of Day 26 and the morning of Day 32.
# Subjects with clinically diagnosed pseudobulbar affect were screened for general health within four weeks before entry into the study. All eligible subjects had attained a score of 13 or above on the Center for Neurologic Study-Lability Scale (CNS-LS) at the clinic visit on Day 1.
# (§1) Diary cards were collected on Day 15 and at the time of study completion.
# Subjects completed the CNS-LS questionnaire and visual analog scales assessing quality of life (QOL) and quality of relationships (QOR) every two weeks (Days 1, 15, and 29) during the treatment period. A clinical psychologist, or other approved clinician, administered the Hamilton Rating Scale for Depression (HRSD) at the Screening Visit and on Day 29. Safety was evaluated on Day 15 and Day 29 by examining adverse events, results of physical examinations, vital signs, clinical laboratory values, and resting electrocardiograms (ECGs). In addition to blood samples taken to provide clinical laboratory data, blood was also taken for pharmacokinetic analysis and CYP2D6 genotyping. Each subject completed a diary in which the number of episodes experienced, medications taken, and any adverse events were recorded daily.
# (§2) The primary efficacy variable was the CNS-LS score. All efficacy variables involving a change were determined by the baseline score being subtracted from the mean of the non-missing scores on Days 15 and 29. The secondary efficacy variables were laughing/crying episodes, QOL scores, and QOR scores. […]
# The CNS-LS questionnaire used to assess primary efficacy is a seven-item self-report measure that provides a score for total pseudobulbar affect; it required approximately five minutes for the subject to complete. The range of possible scores was 7 to 35. […] This questionnaire is the only instrument for the measurement of pseudobulbar affect validated for use with ALS subjects.
# The primary efficacy analysis was the change from baseline in CNS-LS scores, adjusted for center and baseline CNS-LS score. The descriptive statistics for the ITT Population are in Table 29.
# These distributions have not been adjusted for baseline scores or for study site. […] As prospectively specified in the protocol, the differences in mean improvement in CNS-LS scores, adjusted for center and baseline CNS-LS scores, were analyzed by using linear regression according to the ANCOVA method of Frison and Pocock.
# [2] = format: in vivo
# From the text: An adverse event was any unfavorable and unintended sign (including an abnormal laboratory finding, for example), symptom, or disease temporally associated with the use of a medicinal product, whether or not considered related to the medicinal product. Changes associated with normal growth and development not varying in frequency or magnitude from that ordinarily anticipated clinically are not adverse events (for example, onset of menstruation occurring at a physiologically appropriate time). Clinical adverse events were described by diagnosis and not by symptoms when possible (for example, cold or seasonal allergies, instead of “runny nose”).
# The severity of adverse events was graded on a 3-point scale and reported in detail as indicated on the Case Report Form: mild—easily tolerated, causing minimal discomfort, and not interfering with normal everyday activities; moderate—sufficiently discomforting to interfere with normal everyday activities; and severe—incapacitating and/or preventing normal everyday activities.
# Subjects were instructed to promptly report any adverse event. The serious adverse event was assessed for the following details: seriousness of event, start date, stop date, intensity, frequency, relationship to test drug, action taken regarding test drug, treatment required, and outcome to date. These details were recorded on the Case Report Form. Such preliminary reports were followed by detailed descriptions that included copies of hospital case reports, autopsy reports, and other documents when requested and applicable.
# Blood and urine were collected at the screening visit and Day 29 for clinical chemistry, hematology, urinalysis, and pregnancy testing. In the event of an abnormal laboratory test value, the test was repeated within one week, and the subject was followed up until the value returned to the normal range and/or until an adequate explanation of the abnormality was found.
# Values were obtained for systolic and diastolic blood pressure, heart rate, and respiration rate on the screening visit and all other study visits. All values outside the pre-defined ranges were flagged in the subject data listings. Electrocardiography (twelve lead) was used to obtain ventricular rate (VR), QT, Q-Tc intervals, […] (PR), and QRS duration. A blood sample (10 mL whole blood) was taken from each subject at the Screening Visit for CYP2D6 genotyping to determine which subjects were poor metabolizers of DM and which were extensive metabolizers. Blood samples were taken on Day 29 for the determination of concentrations of DM, DX, and Q in plasma. The relationship between the concentration of drug in plasma and changes in CNS-LS scores was determined, and the effect of the CYP2D6 genotype on this relationship was evaluated.
# [3] = system: ALS subjects with pseudobulbar affect; experiment: Clinical Study #4: laughing/crying episode counts (diary); format: in vivo, human
# Protocol: as §1, §2
# Secondary efficacy was assessed by using two, 10-cm visual analog scales (VAS). One scale asked subjects to rate how much uncontrollable laughter, tearfulness, or anger had affected the overall quality of their life during the past week, and one scale asked subjects to rate how much uncontrollable laughter, tearfulness, or anger had affected the quality of their relationships with others during the past week. Each scale required less than one minute to complete. The subjects recorded episodes of pathological laughing and crying in a diary daily.
# An analysis of secondary efficacy data was conducted.
# [4] = ITT population, mean of scores on Day 15 and Day 29 minus baseline (Day 1) score
# [5] = ITT population, diary, weighted by days in the study
# [6] = proportional-variance (constant dispersion) negative binomial model
# [7] = quadratic-variance (mean dispersion) negative binomial model
smiles,measurement,setting,value
"COc1ccc2c(c1)[C@]13CCCCC1[C@H](C2)N(C)CC3 (single isomer, unassigned; (+)) [Dextromethorphan, (+)-3-methoxy-N-methylmorphinan]","Difference vs 30DM/30Q, mean difference in the CNS-LS reduction",[1]; Efficacy Evaluable Population (n = 101),−3.78
same,"Difference vs 30DM/30Q, mean difference in the CNS-LS reduction",[1]; ITT Population (n = 125),−3.29
same,"Change in CNS-LS scores, Max",[1]; [4],2.0
same,"Change in CNS-LS scores, Mean",[1]; [4],−5.12
same,"Change in CNS-LS scores, Median",[1]; [4],−4.50
same,"Change in CNS-LS scores, Min",[1]; [4],−25.00
same,"Difference vs 30DM/30Q, mean difference in the CNS-LS reduction",[1]; Safety Population (n = 136),−3.09
same,Subjects with dizziness,"[2]; 28 days, twice daily",15.2%
same,Subjects with loose stools,"[2]; 28 days, twice daily",Three
same,Subjects with nausea,"[2]; 28 days, twice daily",6.1%
same,Subjects with somnolence,"[2]; 28 days, twice daily",3.0%
same,Subjects who withdrew because of adverse events,"[2]; human, in vivo, 29 days",6.1%
same,"CPK, change Baseline to Day 29",[2]; relative to the 30DM/30Q group,significant increase in CPK
same,"Weekly episode counts, Crying, Max","[3]; ITT population, diary",21.00
same,"Weekly episode counts, Crying, Median","[3]; ITT population, diary",0.70
same,"Weekly episode counts, Crying, Min","[3]; ITT population, diary",0.00
same,"Weekly episode counts, Laughing, Max","[3]; ITT population, diary",726.55
same,"Weekly episode counts, Laughing, Median","[3]; ITT population, diary",2.50
same,"Weekly episode counts, Laughing, Min","[3]; ITT population, diary",0.00
same,"Weekly episode counts, Laughing/Crying, Max","[3]; ITT population, diary",726.55
same,"Weekly episode counts, Laughing/Crying, Median","[3]; ITT population, diary",8.97
same,"Weekly episode counts, Laughing/Crying, Min","[3]; ITT population, diary",0.00
same,"Weekly episode counts, Crying, Wtd. Mean",[3]; [5],4.30
same,"Weekly episode counts, Laughing, Wtd. Mean",[3]; [5],35.29
same,"Weekly episode counts, Laughing/Crying, Wtd. Mean",[3]; [5],39.58
same,"Total episodes, times greater than in the 30DM/30Q group",[3]; Poisson regression model with adjustment for center,6.4
same,"Total episodes, ratio to the 30DM/30Q group","[3]; Poisson regression model, outlier omitted",2.3
same,"Crying, estimated ratio relative to the named group",[3]; [6],2.0
same,"Laughing, estimated ratio relative to the named group",[3]; [6],1.4
same,"Total counts, estimated ratio relative to the named group",[3]; [6],1.7
same,"Laughing, estimated ratio relative to the named group","[3]; proportional-variance negative binomial model, outlier subject omitted",1.5
same,"Crying rates, factor between 30DM/30Q and the named group",[3]; [7],twice
same,"Laughing rates, factor between 30DM/30Q and the named group",[3]; [7],2.6
same,"Total episode rates, factor between 30DM/30Q and the named group",[3]; [7],2.6
